Measurements: a melting point compilation (Tetko et al.; mined from patent text by program, amines drawn as free bases though some values may be those of a salt)

| Compound | melting point |
| --- | --- |
| COC(=O)/C(=C/c1ccc2[nH]ccc2c1)N=[N+]=[N-] | 130 to 133 °C |
| CCCc1c(C(=O)NCc2ccc3c(Br)c(OCC(=O)O)ccc3c2)cnn1-c1ccccc1 | 140 to 145 °C |
| CC(C=Cc1ccc(C(=O)O)cc1)c1ccccc1 (configuration not stated) | 127 to 130 °C |
| COc1ccc(CCCCNC(=O)CCl)cc1OC | 94 to 95 °C |
| COC(=O)CC(C)NC(=O)c1ccc(N2CCN(c3ccncc3)CC2)cc1 (configuration not stated) | 130 to 132 °C |
| COC(=O)c1cc(S(N)(=O)=O)c(F)cc1N | 209 to 211 °C |
| CC(C)[C@H](NC(=O)/C=C/c1cccnc1)C(=O)N[C@@H](Cc1ccccc1)[C@@H](O)[C@H](O)[C@H](Cc1ccccc1)NC(=O)[C@@H](NC(=O)/C=C/c1cccnc1)C(C)C | 285 to 289 °C |
| CCCCC(=O)NCCCSCCO | 7 °C |
| Oc1cccc(OCCCC(O)(O)C(F)(F)F)c1 | 76 to 77 °C |
| CCCCCCCCCCCCC1=C(OC(=O)CC)C(=O)c2ccccc2C1=O | 42 to 44 °C |
| N#CC(=C(O)c1ccncc1)c1ccc(F)cc1 | 225 °C |
| O=Cc1ccc(O)c(OCc2ccccc2)c1Cl | 149 to 150 °C |
| Clc1ccc(C2(Cn3cncn3)OCCO2)s1 | 117 °C |
| NS(=O)(=O)c1cccc(-c2cc(-c3nc(-c4ccc(Cl)c(Cl)c4)cc(C(F)(F)F)n3)ccn2)c1 | 247 °C |
| CCOc1nn(-c2cc(C(F)(F)F)ccn2)cc1CCCOc1ccccc1CC(=O)O | 121 to 122 °C |
| COc1cc(C2CCN(C(=O)CN)CC2)ccc1Nc1ncc2ccc(-c3ccccc3OC)n2n1 | 86 to 99 °C |
| N#Cc1cnc(Nc2ccc(OCCn3nccn3)cc2)nc1-c1ccccc1 | 156 °C |
| CCOC(=O)C(Sc1ccc(O)cc1)c1ccc(Br)cc1 (configuration not stated) | 55.6 °C |
| C=CCNc1nc(NCC=C)nc(N(CCCCCCN(c2nc(NCC=C)nc(NCC=C)n2)C2CC(C)(C)NC(C)(C)C2)C2CC(C)(C)NC(C)(C)C2)n1 | 161 to 163 °C |
| OC(CCCl)COc1ccccc1 (configuration not stated) | 52 to 54 °C |

| Compound | melting point |
| --- | --- |
| N=C(N)c1ccc(N2CCN(C3CCC(CCC(=O)O)CC3)C2=O)cc1 (configuration not stated) | > 200 °C |
| C=CCOc1cc2c(cc1C)OC1(CC(C)(C)c3cc(O)c(C)cc3O1)CC2(C)C (configuration not stated) | 143 to 144 °C |
| CCCc1c(COc2ccc(Cc3nnn(Cc4nnn[nH]4)n3)cc2)ccc(C(C)=O)c1O | 137 to 139 °C |
| O=C(O)CCNC(=O)C(=Cc1cc(F)cc(F)c1)CS | 125 °C |
| COc1ccc(CN(C)CCCc2ccc(NC(=O)c3cccc4c(=O)cc(-c5ccccc5)[nH]c34)cc2)cc1OC | 180 °C |
| Clc1ccc(-c2nc(Cl)c3ccccc3n2)cc1 | 166 to 167 °C |
| COc1cc(OC)nc(C(=O)NS(=O)(=O)CC(C)C)n1 | 128 to 130 °C |
| COC(=O)c1c(Cl)ccc(C(=O)O)c1Cl | 183 to 185 °C |
| CC(C)C(=O)N[C@H]1CC[C@H](CCN2CCN(c3nccc4c3CCO4)CC2)CC1 | 219 °C |
| O=Cc1ccc(I)nc1 | 141 °C |
| FCc1cc(-c2nnc3c4ccccc4c(OCc4nc[nH]n4)nn23)no1 | 266 to 268 °C |
| O=C1c2ccc([N+](=O)[O-])cc2C(=O)N1C1CCN(CCc2ccccc2)CC1 | 240 to 242 °C |
| O=S(=O)(Cl)c1ccc(Nc2nccc(-c3ccc(C(F)(F)F)cc3)n2)cc1 | 186 to 188 °C |
| CCNc1c(F)cc2c(=O)c(C(=O)O)cn(-c3cc(N)c(F)cc3F)c2c1Cl | 252 to 255 °C |
| NC(=O)Cc1ccc2[nH]cc(CCN3C(=O)c4ccccc4C3=O)c2c1 | 191 to 193 °C |
| CCCCCCCCCCNC(CCCNC(=N)N)C(=O)O (configuration not stated) | 100 °C |
| FC(F)c1nc2ccccc2n1-c1nc(NCc2ccncc2)nc(N2CCOCC2)n1 | 188 to 190 °C |
| CN=C(NC#N)C1=CC(CF)(CF)Oc2ccc([N+](=O)[O-])cc21 | 259 to 261 °C |
| CC(C)(C)c1cc(CCc2ccccc2NC(=O)NCc2ccccc2)cc(C(C)(C)C)c1O | 181 to 183 °C |
| CCC=CCn1c(=O)sc2c(=O)n(N)c(N)nc21 | 137 to 139 °C |

Further lines, results first:

| melting point | Compound |
| --- | --- |
| 120 to 124 °C | CCCC(O)c1cnc2nc(C)c(OCC)cc2c1Nc1ccc(OC)cc1 (configuration not stated) |
| 112 to 113 °C | Cc1cccc(-c2ccc(Cl)nn2)c1 |
| 110 °C | CON(C)C(=O)c1ccc2nc(Cl)nc(-c3cccc(Cl)c3)c2c1 |
| 192 to 194 °C | Cn1c(C(F)(F)F)cc(=O)n(-c2ccc(Cl)c(CO)c2)c1=O |
| 104 to 105 °C | CN(C)CCOc1ccc(CNC(=O)c2ccccc2N)cc1 |
| 222 to 223 °C | Cc1nc2c3c(c(C(=O)N4CCC4)cc2n1C)CCC1(Cc2ccccc2C1)N3 |
| 155 °C | CCOC(=O)CC1C(=O)N(CCc2c[nH]c3cc(C)ccc23)CCN1C(=O)c1ccccc1 (configuration not stated) |
| 68 to 69.9 °C | CCOP(=O)(OCC)c1c(-c2c(OC)ccc3ccccc23)cc2c(c1C)COC2 |
| 170 to 171 °C | CCCCc1c(C)c2ccc(OCCCN3CCC(NC(=O)c4ccccc4)CC3)cc2oc1=O |
| 116 to 117 °C | Cc1cccc2c1NC(=O)C(CCCN1CCN(c3ccc(F)cc3)CC1)S2 (configuration not stated) |
| 169 to 170 °C | COC(=O)c1ccc(NC(=O)N(C)C)cc1 |
| 192 to 194 °C | O=Cc1cccc(-c2cc3c4c(ccn4C(=O)CNC3)c2)c1 |
| 93 to 95.5 °C | CCOC(=O)c1cccc2c1CCC2C#N (configuration not stated) |
| 203 °C | COc1ccc(S(=O)(=O)Nc2nc(-c3cccc([N+](=O)[O-])c3)c(CN(C)C)s2)cc1OC |
| 165 to 168 °C | COc1cc(OC)c2c(C)c3n(c(=O)c2c1)CCCC3 |
| 169 to 172 °C | CCN(C(=O)N(CC)c1ccc2c(c1)C(C)(C)CCC2(C)C)c1ccc(C(=O)O)cc1 |

| melting point | Compound |
| --- | --- |
| 85 to 88 °C | CON=Cc1nc(Nc2ccccc2)nc(C)c1C |
| 48 to 51 °C | Fc1c(Cl)cc(Br)c2ccccc12 |
| 212 °C | CC1C(=O)NC2=NC=CCN21 (configuration not stated) |
| 208 to 210 °C | CC(=O)NCc1cc([N+](=O)[O-])ccc1N |
| 121 to 123 °C | Cc1cccc(C)c1N1CN(C)CN(C)C1=S |
| 304 to 306 °C | CNC(=O)[C@H]1CN(c2ccc3c(c2)oc(=O)n3C)C(=O)O1 |
| 156 to 159 °C | CC(C)Cn1c(C(F)(F)F)nc2ccc(-n3c(=O)cc(C(F)(F)F)n(C)c3=O)cc21 |
| 207 °C | O=C(Nc1cccc2c1C(=O)N(CC(=O)N1CCN(c3ccncc3)CC1)C2=O)c1ccc(Cl)s1 |
| 181 to 184 °C | Cc1[nH]c2ccc(O)cc2c1C(=O)NC1CCN(CCCc2ccccc2)CC1 |
| 56 to 68 °C | C#CC1(Oc2ccc(F)cc2[N+](=O)[O-])CCN(C(=O)OCC)CC1 |
| 227 to 229 °C | CC1=C(C#N)C(c2cccc3ncc(-c4ccccc4)cc23)C(C(=O)OC(C)C)=C(N)N1 (configuration not stated) |
| 121 °C | Cc1ccnc(-c2cccc(Oc3ccccc3C)n2)n1 |
| 162 °C | C[C@@H](CSC(=O)c1ccccc1)C(=O)N1C(=O)N(C)C[C@H]1C(=O)O |
| 53 to 54 °C | CCCNS(=O)(=O)c1c(C)cc(C)cc1C |
| 82 to 83 °C | CCOC(=O)C=C(NNc1c(C)cc(C)c([N+](=O)[O-])c1C)OC |
| 148 °C | CN1C[C@@H]2c3cc(Cl)ccc3Oc3ccccc3[C@H]2C1=O (relative stereo) |
